Values quoted from earlier work as cited in article PMC10288581 (Frontiers in Pharmacology, 2023).
Where two headings read alike, the source gives them in different places.

Conditions: cited from earlier work
[1] = ref Kakuda et al., (2013), Calcagno et al., (2014)
[2] = increased, exact percentage not reported, ref Yasu et al. (2016)
[3] = increased, exact percentage not reported, ref Bouatou et al. (2014)
[4] = increased, exact percentage not reported, ref Heinz et al. (2007)
[5] = increased, exact percentage not reported, ref Motta et al. (2016)

Cc1cc(C#N)cc(C)c1Oc1nc(Nc2ccc(C#N)cc2)nc(N)c1Br [Etravirine]
↑AUC of voriconazole (increase by effector drug) [1]: *↑14% | ↑Cmax of voriconazole (increase by effector drug) [1]: *↑23%

Cc1c(OCC(F)(F)F)ccnc1C[S+]([O-])c1nc2ccccc2[nH]1 (centres unmarked) [Lanoprazole]
↑AUC of voriconazole (increase by effector drug) [2]: ↑ ^NR* | ↑Cmax of voriconazole (increase by effector drug) [2]: ↑ ^NR*

CC[C@H]1OC(=O)[C@H](C)[C@@H](O[C@H]2C[C@@](C)(OC)[C@@H](O)[C@H](C)O2)[C@H](C)[C@@H](O[C@@H]2O[C@H](C)C[C@H](N(C)C)[C@H]2O)[C@](C)(O)C[C@@H](C)CN(C)[C@H](C)[C@@H](O)[C@]1(C)O [Azithromycin]
↑AUC of voriconazole (increase by effector drug) (ref Purkins et al. (2003d)): *↑8% | ↑Cmax of voriconazole (increase by effector drug) (ref Purkins et al. (2003d)): *↑18%

COc1ccc2nc([S@@+]([O-])Cc3ncc(C)c(OC)c3C)[nH]c2c1 [Esomeprazole]
↑AUC of voriconazole (increase by effector drug) [3]: ↑ ^NR* | ↑Cmax of voriconazole (increase by effector drug) [3]: ↑ ^NR*

CNC(=C[N+](=O)[O-])NCCSCc1ccc(CN(C)C)o1 [Ranitidine]
↑AUC of voriconazole (increase by effector drug) (ref Purkins et al. (2003b)): *↑4% | ↑Cmax of voriconazole (increase by effector drug) (ref Purkins et al. (2003b)): *↑3.5%

CC[C@H]1OC(=O)[C@H](C)[C@@H](O[C@H]2C[C@@](C)(OC)[C@@H](O)[C@H](C)O2)[C@H](C)[C@@H](O[C@@H]2O[C@H](C)C[C@H](N(C)C)[C@H]2O)[C@](C)(O)C[C@@H](C)C(=O)[C@H](C)[C@@H](O)[C@]1(C)O [Erythromycin]
↑AUC of voriconazole (increase by effector drug) (ref Purkins et al. (2003d)): *↑1% | ↑Cmax of voriconazole (increase by effector drug) (ref Purkins et al. (2003d)): *↑8%

CN/C(=N/CCSCc1nc[nH]c1C)NC#N [Cimetidine]
↑AUC of voriconazole (increase by effector drug) (ref Purkins et al. (2003b)): *↑22.5% | ↑Cmax of voriconazole (increase by effector drug) (ref Purkins et al. (2003b)): *↑18.5%

COc1ccnc(C[S+]([O-])c2nc3ccc(OC(F)F)cc3[nH]2)c1OC (centres unmarked) [Pantoprazole]
↑AUC of voriconazole (increase by effector drug) [4]: ↑ ^NR* | ↑Cmax of voriconazole (increase by effector drug) [4]: ↑ ^NR*

COc1ccc2[nH]c([S+]([O-])Cc3ncc(C)c(OC)c3C)nc2c1 (centres unmarked) [Omeprazole]
↑AUC of voriconazole (increase by effector drug) (ref Wood et al. (2003)): *↑41% | ↑Cmax of voriconazole (increase by effector drug) (ref Wood et al. (2003)): *↑15%

O=C(CCCN1CCC(O)(c2ccc(Cl)cc2)CC1)c1ccc(F)cc1 [Haloperidol]
↑AUC of voriconazole (increase by effector drug) [5]: ↑ ^NR* | ↑Cmax of voriconazole (increase by effector drug) [5]: ↑ ^NR*
